Patent publication US20250277012A1 (Protagonist Therapeutics, Inc., priority 2021, published 2025)
Starred links: 1 amine or outer side, 2 acyl side, 3 side chain; linkers in the order of their positions; H or OH if unused. Positions of bridges follow the written chain, without caps; N, C: chain ends. Non-standard residues stand in square brackets, D forms with d. Residues, ends and D or L forms follow the SMILES beside them. Groups on a side chain read outwards from the residue. *: point of attachment. Glutaryl(2-isohexyl,5-OMe) = COC(=O)CCC(CCCC(C)C)C(=O)*; C18 diacid = O=C(O)CCCCCCCCCCCCCCCCC(=O)*; Dip = N[C@H](C(=O)O)C(c1ccccc1)c1ccccc1; γGlu = O=C(O)[C@H](CCC(=O)[*:2])N[*:1]; Pro(3R-OH) = O=C(O)[C@H]1NCC[C@H]1O; Palmitoyl = CCCCCCCCCCCCCCCC(=O)*; β3hF = N[C@H](CC(=O)O)Cc1ccccc1; NMeK = CN[C@@H](CCCCN)C(=O)O; Pen = CC(C)(S)[C@H](N)C(=O)O; dNMeK = CN[C@H](CCCCN)C(=O)O; Isovaleryl = CC(C)CC(=O)*; hCys = N[C@@H](CCS)C(=O)O; Dap = NC[C@H](N)C(=O)O; AEEA = NCCOCCOCC(=O)O; Ahx = NCCCCCC(=O)O

Biological target: T1, ferroportin (Homo sapiens, UniProt Q9NP59)
T1 sequence (Q9NP59 1-571): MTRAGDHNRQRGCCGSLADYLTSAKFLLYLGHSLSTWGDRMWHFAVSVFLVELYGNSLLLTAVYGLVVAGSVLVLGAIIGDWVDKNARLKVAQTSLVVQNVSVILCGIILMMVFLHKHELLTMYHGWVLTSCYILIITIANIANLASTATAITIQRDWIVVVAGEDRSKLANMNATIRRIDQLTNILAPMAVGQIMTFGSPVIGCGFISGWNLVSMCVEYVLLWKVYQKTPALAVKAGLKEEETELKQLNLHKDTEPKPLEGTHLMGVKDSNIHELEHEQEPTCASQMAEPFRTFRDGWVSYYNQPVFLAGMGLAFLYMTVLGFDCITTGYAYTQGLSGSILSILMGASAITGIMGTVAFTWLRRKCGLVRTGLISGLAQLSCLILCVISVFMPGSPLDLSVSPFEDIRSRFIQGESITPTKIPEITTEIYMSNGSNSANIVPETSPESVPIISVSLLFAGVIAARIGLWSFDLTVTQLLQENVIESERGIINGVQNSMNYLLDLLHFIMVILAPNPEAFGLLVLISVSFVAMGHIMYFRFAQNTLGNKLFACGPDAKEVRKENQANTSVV
Assay: FPN activity assay: ferroportin-GFP internalization/degradation in HEK293 cells
Format: cell-based
Design: expressed in transfected cells
Settings: Table 6D; ferroportin-GFP internalization/degradation, at least 18 hours incubation; read-out: FPN IC50
Experimental: Following internalization, the ferroporin protein is degraded.
A retro inverse peptide is a peptide with a reversed sequence in all D amino acids. An example is that Hy-Glu-Thr-His-NH2 becomes Hy-DHis-DThr-DGlu-NH2. The EC50 of these reference compounds for ferroportin internalization/degradation was determined according to the FPN activity assay described above. These peptides served as control standards.

| SMILES | DC50 [nM] |
| --- | --- |
| CCCCCCCCCCCCCCCC(=O)NCCCCCC(=O)NCCCC[C@H](NC(=O)C[C@H](Cc1ccccc1)NC(=O)[C@@H](CCCCN)NC(=O)[C@@H](NC(=O)[C@@H]1CSSC[C@H](NC(=O)[C@H](CCC(=O)O)NC(=O)CC(C)C)C(=O)N[C@@H](Cc2c[nH]cn2)C(=O)N[C@@H](C(c2ccccc2)c2ccccc2)C(=O)N2CCC[C@H]2C(=O)N1)[C@@H](C)CC)C(=O)N[C@H](CCCCN)C(N)=O [compound 134] (Isovaleryl-ECH[Dip]PCI[dK][β3hF]K([Ahx-Palmitoyl])[dK]-NH2; disulfide 2-6) | 10 to 100 |

Same assay, conditions: Table 6E; ferroportin-GFP internalization/degradation, at least 18 hours incubation; read-out: FPN IC50

| SMILES | DC50 [nM] |
| --- | --- |
| CCCCCCCCCCCCCCCC(=O)NCCCCCC(=O)NCCCC[C@@H](C(=O)N[C@H](C(=O)N[C@H](CCCCN)C(N)=O)C(c1ccccc1)c1ccccc1)N(C)C(=O)[C@@H]1CSSC[C@H](NC(=O)[C@@H]2CCCN2C(=O)[C@@H](NC(=O)[C@H](Cc2c[nH]cn2)NC(=O)[C@@H]2[C@H](O)CCN2C(=O)[C@H](CCC(=O)O)NC(=O)CC(C)C)C(c2ccccc2)c2ccccc2)C(=O)N1 [compound 174] (Isovaleryl-E[Pro(3R-OH)]H[Dip]PCC[NMeK]([Ahx-Palmitoyl])[Dip][dK]-NH2; disulfide 6-7) | 10 to 100 |
| COC(=O)CCC(CCCC(C)C)C(=O)N[C@H](C(=O)N[C@@H](Cc1c[nH]cn1)C(=O)N[C@H](C(=O)N1CCC[C@H]1C(=O)N[C@H]1CSSC[C@@H](C(=O)N[C@H](CCCCN)C(=O)N[C@H](C(=O)N[C@H](CCCCN)C(N)=O)C(c2ccccc2)c2ccccc2)NC1=O)C(c1ccccc1)c1ccccc1)[C@@H](C)O (stereo partly shown) [compound 135] ({Glutaryl(2-isohexyl,5-OMe)}-TH[Dip]PCC[dK][Dip][dK]-NH2; disulfide 5-6) | 100 to 500 |

Same assay, conditions: ferroportin-GFP HEK293 cells, at least 18 hours; read-out: FPN IC50

| SMILES | DC50 [nM] |
| --- | --- |
| CC(C)CC(=O)N[C@@H](CCC(=O)O)C(=O)N[C@H](C(=O)N[C@@H](Cc1c[nH]cn1)C(=O)N[C@H](C(=O)N1CCC[C@H]1C(=O)N[C@H]1CSSC[C@@H](C(=O)N[C@H](CCCCN)C(=O)N[C@H](CC(=O)N[C@@H](CCCCNC(=O)COCCOCCNC(=O)COCCOCCNC(=O)CC[C@H](NC(=O)CCCCCCCCCCCCCCCCC(=O)O)C(=O)O)C(=O)N[C@H](CCCCN)C(N)=O)Cc2ccccc2)NC1=O)C(c1ccccc1)c1ccccc1)[C@@H](C)O [Compd 28] (Isovaleryl-ETH[Dip]PCC[dK][β3hF]K([AEEA-AEEA-γGlu-C18 diacid])[dK]-NH2; disulfide 6-7) | 100 to 500 |
| CCCCCCCCCCCCCCCC(=O)NCCCCCC(=O)NCCCC[C@H](NC(=O)[C@@H](NC(=O)[C@@H]1CSSC[C@H](NC(=O)CC(C)C)C(=O)N[C@@H](CCC(=O)O)C(=O)N[C@@H]([C@@H](C)O)C(=O)N[C@@H](Cc2c[nH]cn2)C(=O)N[C@@H](C(c2ccccc2)c2ccccc2)C(=O)N2CCC[C@H]2C(=O)N1)[C@@H](C)CC)C(=O)N[C@H](CC(N)=O)Cc1ccccc1 [Compd 10] (Isovaleryl-CETH[Dip]PCIK([Ahx-Palmitoyl])[β3hF]-NH2; disulfide 1-7) | 100 to 500 |
| CCCCCCCCCCCCCCCC(=O)NCCCCCC(=O)NCCCC[C@H](NC(=O)C[C@H](Cc1ccccc1)NC(=O)[C@H]1CSSC[C@@H](NC(=O)CC(C)C)C(=O)N[C@@H]([C@@H](C)O)C(=O)N[C@@H](Cc2c[nH]cn2)C(=O)N[C@@H](C(c2ccccc2)c2ccccc2)C(=O)N2CCC[C@H]2C(=O)N[C@@H](C)C(=O)N[C@@H]([C@@H](C)CC)C(=O)N1)C(=O)N[C@H](CCCCN)C(N)=O [compound 105] (Isovaleryl-[dC]TH[Dip]PAI[dC][β3hF]K([Ahx-Palmitoyl])[dK]-NH2; disulfide 1-8) | 10 to 100 |
| CCCCCCCCCCCCCCCC(=O)NCCCCCC(=O)NCCCC[C@H](NC(=O)C[C@H](Cc1ccccc1)NC(=O)[C@@H](CCCCN)NC(=O)[C@@H](NC(=O)[C@H](C)NC(=O)[C@H]1CSSC[C@H](NC(=O)[C@H](CCC(=O)O)NC(=O)CC(C)C)C(=O)N[C@@H](Cc2c[nH]cn2)C(=O)N[C@@H](C(c2ccccc2)c2ccccc2)C(=O)N1)[C@@H](C)CC)C(=O)N[C@H](CCCCN)C(=O)N[C@@H](C)C(N)=O [Compd 46] (Isovaleryl-ECH[Dip][dC]AI[dK][β3hF]K([Ahx-Palmitoyl])[dK]A-NH2; disulfide 2-5) | 1 to 10 |
| CC[C@H](C)[C@H](NC(=O)[C@@H]1CSSC[C@H](NC(=O)[C@H](Cc2c[nH]cn2)NC(=O)[C@@H](NC(=O)[C@H](CCC(=O)O)NC(=O)CC(C)C)[C@@H](C)O)C(=O)N2CCC[C@H]2C(=O)N1)C(=O)N[C@@H](CCCCNC(=O)COCCOCCNC(=O)COCCOCCNC(=O)CCCCCNC(=O)CCCCCCCCCCCCCCCCC(=O)O)C(=O)N[C@H](CC(=O)N[C@H](CCCCN)C(N)=O)Cc1ccccc1 [Compd 20] (Isovaleryl-ETHCPCIK([AEEA-AEEA-Ahx-C18 diacid])[β3hF][dK]-NH2; disulfide 4-6) | 100 to 500 |
| CCCCCCCCCCCCCCCC(=O)NCCCCCC(=O)NCCCC[C@H](NC(=O)[C@@H](NC(=O)[C@@H]1CSSCC[C@H](NC(C)=O)C(=O)N[C@@H](CCC(=O)O)C(=O)N[C@@H]([C@@H](C)O)C(=O)N[C@@H](Cc2c[nH]cn2)C(=O)N[C@@H](C(c2ccccc2)c2ccccc2)C(=O)N2CCC[C@H]2C(=O)N1)[C@@H](C)CC)C(=O)N[C@H](CC(N)=O)Cc1ccccc1 [Compd 12] (Ac-[hCys]ETH[Dip]PCIK([Ahx-Palmitoyl])[β3hF]-NH2; disulfide 1-7) | 100 to 500 |
| CCCCCCCCCCCCCCCC(=O)NCCCCCC(=O)NCCCC[C@H](NC(=O)C[C@H](Cc1ccccc1)NC(=O)[C@@H]1CCSSC[C@H](NC(=O)CC(C)C)C(=O)N[C@@H]([C@@H](C)O)C(=O)N[C@@H](Cc2c[nH]cn2)C(=O)N[C@@H](C(c2ccccc2)c2ccccc2)C(=O)N2CCC[C@H]2C(=O)N[C@@H](C)C(=O)N[C@@H]([C@@H](C)CC)C(=O)N1)C(=O)N[C@H](CCCCN)C(N)=O [compound 108] (Isovaleryl-CTH[Dip]PAI[hCys][β3hF]K([Ahx-Palmitoyl])[dK]-NH2; disulfide 1-8) | 10 to 100 |
| CCCCCCCCCCCCCCCC(=O)NCCCCCC(=O)NCCCC[C@H](NC(=O)[C@@H](NC(=O)[C@@H]1CCSSCC[C@H](N)C(=O)N[C@@H](C(C)C)C(=O)N[C@@H](CCC(=O)O)C(=O)N[C@@H]([C@@H](C)O)C(=O)N[C@@H](Cc2c[nH]cn2)C(=O)N[C@@H](C(c2ccccc2)c2ccccc2)C(=O)N2CCC[C@H]2C(=O)N1)[C@@H](C)CC)C(=O)N[C@H](CC(N)=O)Cc1ccccc1 [Compd 16] (H-[hCys]VETH[Dip]P[hCys]IK([Ahx-Palmitoyl])[β3hF]-NH2; disulfide 1-8) | > 500 |

Same assay, conditions: ferroportin-GFP internalization/degradation, HEK293 cells; Table 6E; read-out: FPN IC50

| SMILES | DC50 [nM] |
| --- | --- |
| CC(C)CC(=O)N[C@@H](CCC(=O)O)C(=O)N[C@H](C(=O)N[C@@H](Cc1c[nH]cn1)C(=O)N[C@H](C(=O)N1CCC[C@H]1C(=O)N[C@H]1CSSC[C@@H](C(=O)N(C)[C@@H](CCCCNC(=O)COCCOCCNC(=O)COCCOCCNC(=O)[C@H](CN)NC(=O)CCCCCCCCCCCCCCCCC(=O)O)C(=O)N[C@H](CC(=O)N(C)[C@H](CCCCN)C(N)=O)Cc2ccccc2)NC1=O)C(c1ccccc1)c1ccccc1)[C@@H](C)O [compound 276] (Isovaleryl-ETH[Dip]PCC[NMeK]([AEEA-AEEA-Dap-C18 diacid])[β3hF][dNMeK]-NH2; disulfide 6-7) | 10 to 100 |
| CC(C)CC(=O)N[C@@H](CCC(=O)O)C(=O)N[C@H](C(=O)N[C@@H](Cc1c[nH]cn1)C(=O)N[C@H](C(=O)N1CCC[C@H]1C(=O)N[C@@H]1C(=O)N[C@H](C(=O)N(C)[C@@H](CCCCNC(=O)COCCOCCNC(=O)COCCOCCNC(=O)[C@H](CN)NC(=O)CCCCCCCCCCCCCCCCC(=O)O)C(=O)N[C@H](CC(=O)N[C@H](CCCCN)C(N)=O)Cc2ccccc2)CSSC1(C)C)C(c1ccccc1)c1ccccc1)[C@@H](C)O [compound 271] (Isovaleryl-ETH[Dip]P[Pen]C[NMeK]([AEEA-AEEA-Dap-C18 diacid])[β3hF][dK]-NH2; disulfide 6-7) | 10 to 100 |
